Experimental data reported in US20240287071A1, “CLASS OF IMIDAZOLIDINOPYRIMIDONE COMPOUNDS AND USE THEREOF IN TREATMENT OF HSCLPP-MEDIATED DISEASES” (SICHUAN UNIVERSITY, priority 2021, published 2024).

Experiments:
[1] = tested on: HCT116; experiment: CCK-8 in vitro anti-tumor proliferation assay; format: cell-based; settings: Homo sapiens, HCT-116; Table 5; HCT116; 72 hours; read-out: IC50
Method: Example 3: In vitro anti-tumor proliferation assay of the compounds. The purpose of this experiment was to use CCK-8 to detect the in vitro inhibitory activity of the compounds of the present invention against the proliferation of tumor cells. The main reagents, such as RPMI-1640, DMEM high-glucose culture medium, fetal bovine serum, trypsin, etc., were purchased from Gibco BRL. CCK8 and DMSO were products of Sigma. For in vitro experiment, the test compounds were prepared as 10 mM stock solutions in DMSO and stored at −20° C. in the refrigerator in the dark for later use, then diluted to desired concentration with complete culture medium before use. The human lung cancer cells, colon cancer cells, breast cancer cells, glioblastoma cells, human myelomonocytic leukemia cells, and human Burkitt's lymphoma cells used in this experiment were all purchased from the American ATCC company and preserved in laboratory of the inventors. All the above cell lines were cultured in RPMI-1640 complete medium or DMEM complete medium containing 10% fetal bovine serum, 100 U/mL penicillin, and 100 μg/mL streptomycin under 5% carbon dioxide, 37° C. conditions. […] The previous culture medium was discarded, fresh culture medium was added to resuspend the cells, and then the cells were counted. According to the growth rate of different cells, the cell seeding concentration was determined, generally being 3000-5000 cells/well. After determining the seeding concentration, the cell suspension was diluted to desired concentrations with fresh culture medium, and then added to a 96-well plate with 100 μL per well, and 200 μL of PBS was added to the edge wells to prevent evaporation of the culture medium. On the second day, drug treatment was performed. First, the compounds were diluted into a series of gradients with culture medium, and then the drug solution was added to the 96-well plate, with 3 parallel wells for each gradient. Each plate set a blank control group, and ONC201 was used as the positive control group.

[2] = molecular target: HsClpP (Homo sapiens, UniProt Q16740); experiment: HsClpP enzyme hydrolysis of short peptide substrate AC-WLA-AMC; settings: promoting hydrolysis of short peptide substrate by HsClpP, relative to blank control
Chain of HsClpP (Q16740 57-277): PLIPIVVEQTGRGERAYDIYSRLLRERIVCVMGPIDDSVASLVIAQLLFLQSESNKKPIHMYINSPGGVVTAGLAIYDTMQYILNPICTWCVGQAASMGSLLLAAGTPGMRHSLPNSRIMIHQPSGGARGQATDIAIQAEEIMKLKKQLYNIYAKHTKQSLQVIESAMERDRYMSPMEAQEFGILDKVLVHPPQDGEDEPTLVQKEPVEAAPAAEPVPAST

| Compound | IC50 [1] | Regulatory efficacy 1 μM [2] | Regulatory efficacy 10 μM [2] |
| --- | --- | --- | --- |
| CN1CCn2c1nc(=O)c1c2CCN(Cc2ccccc2)C1 [Compound 2, 7-benzyl-3-methyl-2,3,6,7,8,9-hexahydroimidazo[1,2-a]pyrido[3,4-e]pyrimidin-5(1H)-one] | > 10 µM | + (+ indicating that the increased efficacy is less than 50% of the blank control group) | + (+ indicating that the increased efficacy is less than 50% of the blank control group) |
| O=c1nc2n(c3c1CN(Cc1ccccc1)CC3)CCN2CC1CC1 [Compound 5, 7-benzyl-3-cyclopropylmethyl-2,3,6,7,8,9-hexahydroimidazo[1,2-a]pyrido[3,4-e]pyrimidin-5(1H)-one] | > 10 µM | + (+ indicating that the increased efficacy is less than 50% of the blank control group) | + + |
| O=c1nc2n(c3c1CN(Cc1ccccc1)CC3)CCN2CC1CCCCC1 [Compound 6, 7-benzyl-3-cyclohexylmethyl-2,3,6,7,8,9-hexahydroimidazo[1,2-a]pyrido[3,4-e]pyrimidin-5(1H)-one] | 2.5 µM | + + | + + |
| O=c1nc2n(c3c1CN(Cc1ccccc1)CC3)CCN2Cc1cccc(Br)c1 [Compound 59, 7-Benzyl-3-(3-bromobenzyl)-2,3,6,7,8,9-hexahydroimidazo[1,2-a]pyrido[3,4-e]pyrimidin-5(1H)-one] | – | + + | + + |
| O=c1nc2n(c3c1CN(Cc1ccccc1)CC3)CCN2Cc1ccccc1Cl [Compound 61, 7-Benzyl-3-(2-chlorobenzyl)-2,3,6,7,8,9-hexahydroimidazo[1,2-a]pyrido[3,4-e]pyrimidin-5(1H)-one] | – | + + | + + |
| O=c1nc2n(c3c1CN(Cc1ccccc1)CC3)CCN2Cc1ccccc1F [Compound 62, 7-Benzyl-3-(2-fluorobenzyl)-2,3,6,7,8,9-hexahydroimidazo[1,2-a]pyrido[3,4-e]pyrimidin-5(1H)-one] | – | + + | + + |
| O=c1nc2n(c3c1CN(Cc1ccccc1)CC3)CCN2Cc1cccc(F)c1 [Compound 63, 7-Benzyl-3-(3-fluorobenzyl)-2,3,6,7,8,9-hexahydroimidazo[1,2-a]pyrido[3,4-e]pyrimidin-5(1H)-one] | – | + (+ indicating that the increased efficacy is less than 50% of the blank control group) | + + |
| COc1cccc(CN2CCn3c2nc(=O)c2c3CCN(Cc3ccccc3)C2)c1 [Compound 64, 7-Benzyl-3-(3-methoxybenzyl)-2,3,6,7,8,9-hexahydroimidazo[1,2-a]pyrido[3,4-e]pyrimidin-5(1H)-one] | – | + + | + + |
| CCN1CCn2c1nc(=O)c1c2C(F)(F)CN(Cc2ccccc2)C1 [Compound 65, 7-Benzyl-3-ethyl-9,9-difluoro-2,3,6,7,8,9-hexahydroimidazo[1,2-a]pyrido[3,4-e]pyrimidin-5(1H)-one] | – | + (+ indicating that the increased efficacy is less than 50% of the blank control group) | + + |
| O=c1nc2n(c3c1CN(Cc1ccccc1)CC3(F)F)CCN2CC1CCCCC1 [Compound 66, 7-Benzyl-3-(cyclohexylmethyl)-9,9-difluoro-2,3,6,7,8,9-hexahydroimidazo[1,2-a]pyrido[3,4-e]pyri midin-5(1H)-one] | – | + + | + + |
| O=c1nc2n(c3c1CN(Cc1ccccc1)CC3(F)F)CCN2c1ccccc1 [Compound 67, 7-Benzyl-9,9-difluoro-3-phenyl-2,3,6,7,8,9-hexahydroimidazo[1,2-a]pyrido[3,4-e]pyrimidin-5(1H)-one] | – | + + | + + |
| O=c1nc2n(c3c1CN(Cc1ccccc1)CC3(F)F)CCN2Cc1ccccc1 [Compound 68, 3,7-Dibenzyl-9,9-difluoro-2,3,6,7,8,9-hexahydroimidazo[1,2-a]pyrido[3,4-e]pyrimidin-5(1H)-one] | – | + + | + + |
| O=c1nc2n(c3c1CN(Cc1ccccc1)CC3(F)F)CCN2CCc1ccccc1 [Compound 69, 7-Benzyl-9,9-difluoro-3-phenylethyl-2,3,6,7,8,9-hexahydroimidazo[1,2-a]pyrido[3,4-e]pyrimidin-5(1H)-one] | – | + + | + + |
| O=c1nc2n(c3c1CN(Cc1ccccc1)CC3(F)F)CCN2Cc1ccco1 [Compound 70, 7-Benzyl-9,9-difluoro-3-(furan-2-ylmethyl)-2,3,6,7,8,9-hexahydroimidazo [1,2-a]pyrido[3,4-e]pyrimidin-5(1H)-one] | – | + (+ indicating that the increased efficacy is less than 50% of the blank control group) | + + |
| Cc1ccc(CN2CCn3c2nc(=O)c2c3C(F)(F)CN(Cc3ccccc3)C2)cc1 [Compound 72, 7-Benzyl-9,9-difluoro-3-(4-methylbenzyl)-2,3,6,7,8,9-hexahydroimidazo[1,2-a]pyrido[3,4-e]pyrimid in-5(1H)-one] | – | + + | + + |
| O=c1nc2n(c3c1CN(Cc1ccccc1)CC3(F)F)CCN2Cc1ccc(C(F)(F)F)cc1 [Compound 73, 7-Benzyl-9,9-difluoro-3-(4-(trifluoromethyl)benzyl)-2,3,6,7,8,9-hexahydroimidazo[1,2-a]pyrido[3,4-e]pyrimidin-5(1H)-one] | – | + + | + + |
| COc1ccccc1CN1CCn2c1nc(=O)c1c2C(F)(F)CN(Cc2ccccc2)C1 [Compound 74, 7-Benzyl-9,9-difluoro-3-(2-methoxybenzyl)-2,3,6,7,8,9-hexahydroimidazo[1,2-a]pyrido[3,4-e]pyrimidin-5(1H)-one] | – | + + | + + |
| CS(=O)(=O)c1ccc(CN2CCn3c2nc(=O)c2c3C(F)(F)CN(Cc3ccccc3)C2)cc1 [Compound 75, 7-Benzyl-9,9-difluoro-3-(4-(methylsulfonyl)benzyl)-2,3,6,7,8,9-hexahydroimidazo[1,2-a]pyrido[3,4-e]pyrimidin-5(1H)-one] | – | + + | + + |
| O=c1nc2n(c3c1CN(Cc1ccccc1)CC3(F)F)CCN2Cc1ccc(Cl)cc1 [Compound 77, 7-Benzyl-3-(4-chlorobenzyl)-9,9-difluoro-2,3,6,7,8,9-hexahydroimidazo[1,2-a]pyrido[3,4-e]pyrimidi n-5(1H)-one] | – | + + | + + |
| O=c1nc2n(c3c1CN(Cc1ccccc1)CC3(F)F)CCN2Cc1ccc(Br)cc1 [Compound 78, 7-Benzyl-3-(4-bromobenzyl)-9,9-difluoro-2,3,6,7,8,9-hexahydroimidazo[1,2-a]pyrido[3,4-e]pyrimidin-5(1H)-one] | – | + + | + + |
| O=c1nc2n(c3c1CN(Cc1ccccc1)CC3(F)F)CCN2Cc1ccc(Cl)c(Cl)c1 [Compound 79, 7-Benzyl-3-(3,4-dichlorobenzyl)-9,9-difluoro-2,3,6,7,8,9-hexahydroimidazo[1,2-a]pyrido[3,4-e]pyrimidin-5(1H)-one] | – | + + | + + |
| O=c1nc2n(c3c1CN(Cc1ccccc1)CC3(F)F)CCN2Cc1ccc(F)c(F)c1 [Compound 80, 7-Benzyl-3-(3,4-difluorobenzyl)-9,9-difluoro-2,3,6,7,8,9-hexahydroimidazo[1,2-a]pyrido[3,4-e]pyrimidin-5(1H)-one] | – | + + | + + |
| O=c1nc2n(c3c1CN(Cc1ccccc1)CC3(F)F)CCN2Cc1ccc(F)cc1F [Compound 81, 7-Benzyl-3-(2,4-difluorobenzyl)-9,9-difluoro-2,3,6,7,8,9-hexahydroimidazo[1,2-a]pyrido[3,4-e]pyrimidin-5(1H)-one] | – | + + | + + |
